# Measured values: patent US20260234161A1, “RIFABUTIN ANALOGS FOR THE TREATMENT OF BACTERIAL DISEASES” (BIOVERSYS AG, priority 2023, published 2026)
# Key:
# Assay type in all cases: cell-based
# [1] = tested on: M. abscessus (ATCC 19977); assay: MIC by broth microdilution, M. abscessus in cation adjusted Mueller Hinton broth; details: Mycobacteroides abscessus, ATCC19977, 96 h; ATCC 19977; cation adjusted Mueller Hinton broth without growth supplement; 30° C., 4 days; read-out: MIC M. abscessus MH
# Method: (§1) MIC values were determined by broth microdilution method according to the CLSI guidelines with the following exceptions: MIC against A. baumannii was performed in RPMI medium supplemented with 10% FCS and MIC against M. abscessus was performed in Middlebrook 7H9 broth supplemented with Middlebrook ADC growth supplement (10%; see column “M. abscessus 7H9”). MIC forM abscessus was determined a second time in standard cation adjusted Mueller Hinton broth without growth supplement (see colum “M. abscessus MH”). All other MIC were performed in standard cation adjusted Mueller Hinton broth, supplemented with Middlebrook ADC growth supplement (5%) for the slow growing mycobacteria (M. xenopi, M. kansasii and M. avium).
# (§2) The following procedure applies to all species tested, except forM xenopi. From a fresh culture plate (from overnight to several days depending on the bacteria), cells were resuspended in 0.9% (w/v) saline solution and bacterial inoculum was prepared in the respective testing medium with 5×10^5 CFU/mL. For M. xenopi, the inoculum was prepared from a fresh liquid culture (7H9+ADC). The appropriate volumes of a 10 mg/mL compound solution were directly dispensed in the 96-well assay plate using a digital dispenser to create two-fold dilution series from 32 to 0.002 μg/mL final concentration for A. baumannii and S. aureus; from 16 to 0.016 μg/mL for M. abscessus and M. avium; and from 1 to 6×10^−5 μg/mL for M. kansasii and M. xenopi. 100 μL of bacterial suspension was finally added to the compounds. Plates were covered and incubated without shaking at 35° C. for 20 hours for A. baumanii and S. aureus; at 30° C. for 4 days for M. abscessus; and at 37° C. for 7 days (at least) for M. kansasii (covered with aluminum foil to avoid light exposure), M. avium and M. xenopi. Every experiment contained an antibiotic as quality control. MIC was determined visually as the lowest concentration of a compound that prevents visible growth of the bacteria.
# (§3) The in vitro activity of compounds described herein was determined against S. aureus (UAMS-1625 strain), A. baumannii (HUMC1 strain), M. abscessus (ATCC 19977), M. kansasii (ATCC 12478), M. avium (ATCC 25291), and M. xenopi (ATCC 19250).
# [2] = tested on: A. baumannii (HUMC1 strain); assay: MIC by broth microdilution, A. baumannii (RPMI + 10% FCS); details: Acinetobacter baumannii; HUMC1 strain; RPMI medium + 10% FCS; 35° C., 20 hours; read-out: MIC A. baumannii
# Method: as §1, §2, §3
# [3] = tested on: S. aureus (UAMS-1625 strain); assay: MIC by broth microdilution, S. aureus; details: Staphylococcus aureus, 20 h, read-out: MIC S. aureus
# Method: as §1, §2, §3
smiles,measurement,setting,value
CO[C@H]1/C=C/O[C@@]2(C)Oc3c(C)c(O)c4c(c3C2=O)C2=NC3(CCN(CC(C)C)CC3)NC2=C(NC(=O)/C(C)=C\C=C\[C@H](C)[C@H](O)[C@@H](C)[C@@H](O)[C@@H](C)[C@H](OC(=O)N2CCCC3(CCN(C)CC3)C2)[C@@H]1C)C4=O [Compound 20],MIC,[1],1 µg/mL
same,MIC,[2],≤ 0.016 µg/mL
same,MIC,[3],0.06 µg/mL
CO[C@H]1/C=C/O[C@@]2(C)Oc3c(C)c(O)c4c(c3C2=O)C2=NC3(CCN(CC(C)C)CC3)NC2=C(NC(=O)/C(C)=C\C=C\[C@H](C)[C@H](O)[C@@H](C)[C@@H](O)[C@@H](C)[C@H](OC(=O)N2CCOC3(CCN(C)CC3)C2)[C@@H]1C)C4=O [Compound 24],MIC,[1],2 µg/mL
same,MIC,[2],≤ 0.016 µg/mL
same,MIC,[3],0.06 µg/mL
CO[C@H]1/C=C/O[C@@]2(C)Oc3c(C)c(O)c4c(c3C2=O)C2=NC3(CCN(CC(C)C)CC3)NC2=C(NC(=O)/C(C)=C\C=C\[C@H](C)[C@H](O)[C@@H](C)[C@@H](O)[C@@H](C)[C@H](OC(=O)N2CCN3CCCC3C2)[C@@H]1C)C4=O (stereo partly drawn) [Compound 25],MIC,[1],2 µg/mL
same,MIC,[2],≤ 0.016 µg/mL
same,MIC,[3],0.03 µg/mL
CO[C@H]1/C=C/O[C@@]2(C)Oc3c(C)c(O)c4c(c3C2=O)C2=NC3(CCN(CC(C)C)CC3)NC2=C(NC(=O)/C(C)=C\C=C\[C@H](C)[C@H](O)[C@@H](C)[C@@H](O)[C@@H](C)[C@H](OC(=O)NC2CCN(CC3CCCCC3)CC2)[C@@H]1C)C4=O [Compound 29],MIC,[1],0.25 µg/mL
same,MIC,[2],≤ 0.016 µg/mL
same,MIC,[3],0.125 µg/mL
CO[C@H]1/C=C/O[C@@]2(C)Oc3c(C)c(O)c4c(c3C2=O)C2=NC3(CCN(CC(C)C)CC3)NC2=C(NC(=O)/C(C)=C\C=C\[C@H](C)[C@H](O)[C@@H](C)[C@@H](O)[C@@H](C)[C@H](OC(=O)N2CC3CC2CN3Cc2ccccc2)[C@@H]1C)C4=O [Compound 32],MIC,[1],0.5 µg/mL
same,MIC,[2],0.03 µg/mL
same,MIC,[3],0.25 µg/mL
CO[C@H]1/C=C/O[C@@]2(C)Oc3c(C)c(O)c4c(c3C2=O)C2=NC3(CCN(CC(C)C)CC3)NC2=C(NC(=O)/C(C)=C\C=C\[C@H](C)[C@H](O)[C@@H](C)[C@@H](O)[C@@H](C)[C@H](OC(=O)N2CCC3(CCN(CC5CCCCC5)C3)C2)[C@@H]1C)C4=O (stereo partly drawn) [Compound 36],MIC,[1],0.125 µg/mL
same,MIC,[2],0.06 µg/mL
same,MIC,[3],0.25 µg/mL
CO[C@H]1/C=C/O[C@@]2(C)Oc3c(C)c(O)c4c(c3C2=O)C2=NC3(CCN(CC(C)C)CC3)NC2=C(NC(=O)/C(C)=C\C=C\[C@H](C)[C@H](O)[C@@H](C)[C@@H](O)[C@@H](C)[C@H](OC(=O)N2CCN(Cc3nccn3C)CC2)[C@@H]1C)C4=O [Compound 37],MIC,[1],2 µg/mL
same,MIC,[2],≤ 0.016 µg/mL
same,MIC,[3],0.03 µg/mL
CO[C@H]1/C=C/O[C@@]2(C)Oc3c(C)c(O)c4c(c3C2=O)C2=NC3(CCN(CC(C)C)CC3)NC2=C(NC(=O)/C(C)=C\C=C\[C@H](C)[C@H](O)[C@@H](C)[C@@H](O)[C@@H](C)[C@H](OC(=O)N2CCN(Cc3c(C)noc3C)CC2)[C@@H]1C)C4=O [Compound 38],MIC,[1],1 µg/mL
same,MIC,[2],≤ 0.016 µg/mL
same,MIC,[3],0.125 µg/mL
CO[C@H]1/C=C/O[C@@]2(C)Oc3c(C)c(O)c4c(c3C2=O)C2=NC3(CCN(CC(C)C)CC3)NC2=C(NC(=O)/C(C)=C\C=C\[C@H](C)[C@H](O)[C@@H](C)[C@@H](O)[C@@H](C)[C@H](OC(=O)N2CCCN(CC3CCCCC3)CC2)[C@@H]1C)C4=O [Compound 41],MIC,[1],0.125 µg/mL
same,MIC,[2],0.06 µg/mL
same,MIC,[3],1 µg/mL
CO[C@H]1/C=C/O[C@@]2(C)Oc3c(C)c(O)c4c(c3C2=O)C2=NC3(CCN(CC(C)C)CC3)NC2=C(NC(=O)/C(C)=C\C=C\[C@H](C)[C@H](O)[C@@H](C)[C@@H](O)[C@@H](C)[C@H](OC(=O)N2CCN(CCO)CC2)[C@@H]1C)C4=O [Compound 43],MIC,[1],8 µg/mL
same,MIC,[2],≤ 0.016 µg/mL
same,MIC,[3],0.06 µg/mL
CO[C@H]1/C=C/O[C@@]2(C)Oc3c(C)c(O)c4c(c3C2=O)C2=NC3(CCN(CC(C)C)CC3)NC2=C(NC(=O)/C(C)=C\C=C\[C@H](C)[C@H](O)[C@@H](C)[C@@H](O)[C@@H](C)[C@H](OC(=O)N2CCN(CCOCCO)CC2)[C@@H]1C)C4=O [Compound 44],MIC,[1],4 µg/mL
same,MIC,[2],≤ 0.016 µg/mL
same,MIC,[3],0.03 µg/mL
CO[C@H]1/C=C/O[C@@]2(C)Oc3c(C)c(O)c4c(c3C2=O)C2=NC3(CCN(CC(C)C)CC3)NC2=C(NC(=O)/C(C)=C\C=C\[C@H](C)[C@H](O)[C@@H](C)[C@@H](O)[C@@H](C)[C@H](OC(=O)N2CCN(CCc3ccccc3)CC2)[C@@H]1C)C4=O [Compound 46],MIC,[1],0.5 µg/mL
same,MIC,[2],0.25 µg/mL
same,MIC,[3],0.25 µg/mL
COCCN1CCN(C(=O)O[C@H]2[C@H](C)[C@H](O)[C@H](C)[C@@H](O)[C@@H](C)/C=C/C=C(/C)C(=O)NC3=C4NC5(CCN(CC(C)C)CC5)N=C4c4c(c(O)c(C)c5c4C(=O)[C@@](C)(O/C=C/[C@H](OC)[C@H]2C)O5)C3=O)CC1 [Compound 48],MIC,[1],1 µg/mL
same,MIC,[2],≤ 0.016 µg/mL
same,MIC,[3],0.06 µg/mL
CO[C@H]1/C=C/O[C@@]2(C)Oc3c(C)c(O)c4c(c3C2=O)C2=NC3(CCN(CC(C)C)CC3)NC2=C(NC(=O)/C(C)=C\C=C\[C@H](C)[C@H](O)[C@@H](C)[C@@H](O)[C@@H](C)[C@H](OC(=O)N2CCN(CC(C)(C)C)CC2)[C@@H]1C)C4=O [Compound 49],MIC,[1],0.125 µg/mL
same,MIC,[2],1 µg/mL
same,MIC,[3],0.5 µg/mL
CO[C@H]1/C=C/O[C@@]2(C)Oc3c(C)c(O)c4c(c3C2=O)C2=NC3(CCN(CC(C)C)CC3)NC2=C(NC(=O)/C(C)=C\C=C\[C@H](C)[C@H](O)[C@@H](C)[C@@H](O)[C@@H](C)[C@H](OC(=O)N2CCNCC2)[C@@H]1C)C4=O [Compound 51],MIC,[1],4 µg/mL
same,MIC,[2],≤ 0.001 µg/mL
same,MIC,[3],0.016 µg/mL
CO[C@H]1/C=C/O[C@@]2(C)Oc3c(C)c(O)c4c(c3C2=O)C2=NC3(CCN(CC(C)C)CC3)NC2=C(NC(=O)/C(C)=C\C=C\[C@H](C)[C@H](O)[C@@H](C)[C@@H](O)[C@@H](C)[C@H](OC(=O)N2CCN(CCC(C)C)CC2)[C@@H]1C)C4=O [Compound 52],MIC,[1],0.125 µg/mL
same,MIC,[2],0.06 µg/mL
same,MIC,[3],0.25 µg/mL
CO[C@H]1/C=C/O[C@@]2(C)Oc3c(C)c(O)c4c(c3C2=O)C2=NC3(CCN(CC(C)C)CC3)NC2=C(NC(=O)/C(C)=C\C=C\[C@H](C)[C@H](O)[C@@H](C)[C@@H](O)[C@@H](C)[C@H](OC(=O)N2CCN(CC3CCOCC3)CC2)[C@@H]1C)C4=O [Compound 53],MIC,[1],0.125 µg/mL
same,MIC,[2],0.004 µg/mL
same,MIC,[3],0.125 µg/mL
CO[C@H]1/C=C/O[C@@]2(C)Oc3c(C)c(O)c4c(c3C2=O)C2=NC3(CCN(CC(C)C)CC3)NC2=C(NC(=O)/C(C)=C\C=C\[C@H](C)[C@H](O)[C@@H](C)[C@@H](O)[C@@H](C)[C@H](OC(=O)N2CCN(CC(C)C)CC2)[C@@H]1C)C4=O [Compound 54],MIC,[1],0.06 µg/mL
same,MIC,[2],0.03 µg/mL
same,MIC,[3],0.125 µg/mL
CO[C@H]1/C=C/O[C@@]2(C)Oc3c(C)c(O)c4c(c3C2=O)C2=NC3(CCN(CC(C)C)CC3)NC2=C(NC(=O)/C(C)=C\C=C\[C@H](C)[C@H](O)[C@@H](C)[C@@H](O)[C@@H](C)[C@H](OC(=O)N2CCN(Cc3ccco3)CC2)[C@@H]1C)C4=O [Compound 55],MIC,[1],2 µg/mL
same,MIC,[2],≤ 0.016 µg/mL
same,MIC,[3],0.125 µg/mL
CO[C@H]1/C=C/O[C@@]2(C)Oc3c(C)c(O)c4c(c3C2=O)C2=NC3(CCN(CC(C)C)CC3)NC2=C(NC(=O)/C(C)=C\C=C\[C@H](C)[C@H](O)[C@@H](C)[C@@H](O)[C@@H](C)[C@H](OC(=O)N2CCN(c3nccs3)CC2)[C@@H]1C)C4=O [Compound 57],MIC,[1],0.5 µg/mL
same,MIC,[2],0.03 µg/mL
same,MIC,[3],0.06 µg/mL
CO[C@H]1/C=C/O[C@@]2(C)Oc3c(C)c(O)c4c(c3C2=O)C2=NC3(CCN(CC(C)C)CC3)NC2=C(NC(=O)/C(C)=C\C=C\[C@H](C)[C@H](O)[C@@H](C)[C@@H](O)[C@@H](C)[C@H](OC(=O)N2C[C@@H]3C[C@H]2CN3CC2CCCCC2)[C@@H]1C)C4=O [Compound 58],MIC,[1],0.125 µg/mL
same,MIC,[2],0.03 µg/mL
same,MIC,[3],0.125 µg/mL
CCCN1CCN(C(=O)O[C@H]2[C@H](C)[C@H](O)[C@H](C)[C@@H](O)[C@@H](C)/C=C/C=C(/C)C(=O)NC3=C4NC5(CCN(CC(C)C)CC5)N=C4c4c(c(O)c(C)c5c4C(=O)[C@@](C)(O/C=C/[C@H](OC)[C@H]2C)O5)C3=O)CC12CC2 [Compound 59],MIC,[1],0.125 µg/mL
same,MIC,[2],0.03 µg/mL
same,MIC,[3],0.25 µg/mL
CO[C@H]1/C=C/O[C@@]2(C)Oc3c(C)c(O)c4c(c3C2=O)C2=NC3(CCN(CC(C)C)CC3)NC2=C(NC(=O)/C(C)=C\C=C\[C@H](C)[C@H](O)[C@@H](C)[C@@H](O)[C@@H](C)[C@H](OC(=O)N2CCCN(C3CCCC3)CC2)[C@@H]1C)C4=O [Compound 60],MIC,[1],0.25 µg/mL
same,MIC,[2],≤ 0.016 µg/mL
same,MIC,[3],0.06 µg/mL
